From patent US20260373229A1, “TOPICALLY APPLICABLE PREPARATION FOR IMPROVING SKIN CONDITION” (priority 2022, published 2026)
Converted amounts (≈) assume the structure as drawn.

How the values were obtained:
[1] = test system: S. aureus DSM20231; experiment: Growth of S. aureus DSM20231 in microtiter plates (OD600, aerobic, 24 h); type: cell-based, Staphylococcus aureus; conditions: for synergistic effect with ISW1-2 on S. aureus growth: with 0.00002% ISW1-2, FIGS. 3 to 10
Method: (§1) S. aureus DSM20231 and S. epidermidis ATTC12228 were incubated under aerobic conditions at 37 °C with constant shaking. The overnight cultures were diluted 1:10000 in MHB (Müller Hinton Broth: starch 1.5 g/l; meat infusion 2.0 g/l; peptone from casein (hydrolyzed) 17.5 g/l; pH: 7.4±0.2) and seeded in microtiter plates. […] These experiments were repeated in the presence of a non-inhibitory ISW1-2 concentration (0.00002% ISW1-2). To estimate bacterial growth, the optical density (OD) was measured photometrically at a wavelength of 600 nm (OD600). Increasing values indicate bacterial growth (mean value from three independent experiments).
Staphylococcus aureus DSM20231 was incubated without ISW1-2 (FIGS. 3, 5, 7, 9) and with a non-inhibitory concentration of 0.00002% ISW1-2 (FIGS. 4, 6, 8, 10), wherein different concentrations of licochalcone Extract; licochalcone A; licochalcone C and licochalcone E (0 μg/ml=control; 1 μg/ml; 2 μg/ml) were present. FIGS. 3 to 10 show the bacterial growth over 24 hours under the different conditions (mean values from three independent experiments).
(§2) Bacterial growth is measured by the increase in turbidity in the medium (OD600), i.e. an increase in OD over time indicates bacterial growth.
FIGS. 7 and 8 show the studies with ISW1-2 and licochalcone C. Four different amounts of licochalcone C were used (0%, control; 1 μg/ml; 2 μg/ml and 4 μg/ml), alone (FIG. 7) and with 0.00002% ISW1-2 (FIG. 8).
FIGS. 9 and 10 show the studies with ISW1-2 and licochalcone E. Three different amounts of licochalcone E were used (0%, control; 1 μg/ml; 2 μg/ml), alone (FIG. 9) and with 0.00002% ISW1-2 (FIG. 10).

[2] = test system: S. epidermidis ATTC12228; experiment: Growth of S. epidermidis 12228 in microtiter plates (OD600, aerobic, 24 h); type: cell-based, Staphylococcus epidermidis; conditions: for effect on growth of S. epidermidis (OD600): 1 μg/ml, 2 μg/ml, without ISW1-2, 24 h, FIGS. 11, 13, 15, 17
Method: as §1
In further comparative studies, the influence of the combination of compounds according to the invention was also determined on skin commensal germs, such as S. epidermidis (FIGS. 11 to 18).
For this purpose, Staphylococcus epidermidis 12228 was incubated without ISW1-2 (FIGS. 11, 13, 15, 17) and with a non-inhibitory concentration of 0.00002% ISW1-2 (FIGS. 12, 14, 16, 18), wherein different concentrations of licochalcone extract; licochalcone A; licochalcone C and licochalcone E (0 μg/ml=control; 1 μg/ml; 2 μg/ml) were present. The bacterial growth over 24 h under the different conditions is shown (mean values from three independent experiments).
as §2

[3] = test system: C. acnes DSM1897; experiment: Growth of C. acnes DSM1897 in microtiter plates (OD600, anaerobic, 5 days); type: cell-based, Cutibacterium acnes (Propionibacterium acnes)
Method: The effect of the preparations according to the invention on the growth of C. acnes, S. aureus and S. epidermidis was investigated in in vitro studies.
C. acnes DSM1897 was incubated under anaerobic conditions at 37 °C. The overnight culture was diluted 1:1000 in Caso medium (casein peptone 17 g/l; soybean meal peptone 3 g/l; sodium chloride 5 g/l; glucose 2.5 g/l; dipotassium hydrogen phosphate 2.5 g/l; pH 7.3±0.2) and seeded in microtiter plates. Different concentrations of the plant extract Glycyrrhiza inflata and licochalcone A (1 μg/ml, 2 μg/ml) were added, mixed and incubated anaerobically at 37 °C for 5 days. […] The optical density (OD) was measured photometrically at a wavelength of 600 nm (OD600) to estimate the growth of the bacteria. […]
Unless otherwise stated, the quantities refer to the weight of the compound per volume of medium, e.g. 1 μg/ml means 1 μg licochalcone A in 1 ml medium. The percentage quantities of ISW1-2 refer to the weight of ISW1-2 in relation to the total weight of the respective test preparation.
C. acnes 1897 was incubated without ISW1-2 (FIG. 1 shaded) and with a non-inhibitory concentration of 0.00001% ISW1-2 (FIG. 1 black), wherein different concentrations of licochalcone A Extract (0 μg/ml=control; 1 μg/ml; 2 μg/ml) were added. Bacterial growth or inhibition is measured by the increase/reduction of turbidity in the medium (OD600). […]

[4] = test system: innate immune response of the skin; conditions: in synergy with factors originating from the host and microbiome; cited from earlier work
[5] = test system: membrane potential of the bacteria
[6] = test system: Staphylococcus aureus; experiment: Minimum inhibitory concentration / antimicrobial activity against Staphylococcus aureus in vitro; type: cell-based; conditions: for minimum inhibitory concentration (MIC): Staphylococcus aureus

SMILES: C=C(C)[C@@H](C)c1cc(/C=C/C(=O)c2ccc(O)cc2)c(OC)cc1O [licochalcone E]
- synergistic effect with ISW1-2 on S. aureus growth [1]: better synergistic effect with ISW1-2, similar to licochalcone A
- effect on growth of S. epidermidis (OD600) [2]: No influence on the growth of S. epidermidis was observed

SMILES: COc1c(/C=C/C(=O)c2ccc(O)cc2)ccc(O)c1CC=C(C)C [licochalcone C]
- synergistic effect with ISW1-2 on S. aureus growth [1]: somewhat less synergistically with ISW1-2 than licochalcone A
- effect on growth of S. epidermidis (OD600) [2]: No influence on the growth of S. epidermidis was observed

SMILES: C=CC(C)(C)c1cc(/C=C/C(=O)c2ccc(O)cc2)c(OC)cc1O [licochalcone A]
- growth inhibition of C. acnes (OD600) ([3]; pure extract or pure licochalcone A without ISW1-2, FIGS. 1 and 2): only a minor inhibitory effect
- effect on growth of S. epidermidis (OD600) [2]: No influence on the growth of S. epidermidis was observed

SMILES: CC(C)C[C@H]1NC(=O)[C@H](Cc2c[nH]c3ccccc23)NC(=O)[C@@H](C(C)C)NC(=O)[C@H]2NC(SC2(C)C)[C@H](C(C)C)NC(=O)[C@@H](Cc2c[nH]c3ccccc23)NC(=O)[C@H](C(C)C)NC1=O [ISW1-2, cyclo [N-DVal-LTrp-DLeu-LVal-DTrp-LMe2Thz(LVal)-C]]
- effect on innate immune response of the skin [4]: supports the innate immune response of the skin
- growth inhibition of S. aureus (OD600) ([1]; 0.00002% ISW1-2 alone, 37 °C, 24 h): non-inhibitory
- mechanism of action ([5]; antibacterial effect): based on proton translocation while maintaining membrane integrity
- correlation of antibacterial effect with membrane potential drop ([5]; bacteria): correlates strongly with the drop of the membrane potential of the bacteria
- sensitivity of skin pathogens such as Staphylococcus aureus [6]: particularly sensitive
- minimum inhibitory concentration (MIC) [6]: 3.1 µg/mL (≈ 3.45 µM)
- minimum inhibitory concentration (MIC) ([6]; 3.1 μg/ml expressed in %): 0.00031%
- growth inhibition of C. acnes (OD600) ([3]; 0.00001% ISW1-2 alone, anaerobic, 37 °C, 5 days): non-inhibitory
- growth inhibition of S. epidermidis (OD600) ([2]; 0.00002% ISW1-2 alone, 24 h): non-inhibitory
